Laboratory results taken from patent US20170143748A1, “ANTI-TUMOR PHARMACEUTICAL APPLICATION OF PENTACYCLIC TRITERPENE SAPONIN COMPOUNDS OF SZECHUAN MELANDIUM ROOT” (priority 2014, published 2017).

Assays:
Assay type in all cases: cell-based, Human
A875 = test: MTT inhibition of tumor cells in vitro (Example 3); details: 48 hours
Protocol: (§1) Human resources tumor cell line […], […], HT29, MCF-7 and A875 were provided by Cancer Hospital, Chinese Academy of Medical Sciences.
(§2) Cells were passaged every 2 or 3 days, and all the experiments were carried out on exponentially growing cells.
(§3) All cells were cultured in a humidified atmosphere (5% CO2 and […]), and passaged every 2 or 3 days. Cells were harvested on exponentially growing phase, and cell suspension was prepared with 2×10^4 cells/mL, added with 100 μL per well of 96-well plates, and cultured for 24 h in incubator. 100 μL medium without cells was added per well as blank group.
(§4) Compound (1), (2), (3), (4), (7) or (8) was dissolved in DMSO respectively, and diluted with 1640 medium at a final concentration of 400 μg/mL, so as to that of the Cisplatin. Cells were divided into 9 groups, they were blank group, model group, Compound (1), (2), (3), (4), (7) and (8) groups, and Cisplatin group as the positive one, 6 wells per group.
(§5) Before drug administration, supernatant of each well was removed and fresh 1640 medium was added, 180 μL per well. Compounds and Cisplatin were added with 20 μL per well respectively at a final concentration of 40 μg/mL. Wells of blank and model groups were added with 0.5% DMSO, 20 μL per well. 48 hours later, 20 μL MTT was added per well and continued to culture for 4 hours, then the supernatant was replaced carefully and DMSO was added with 150 μL per well to end the experiment. The 96-well plates were shaken for 10 mins and read the absorbance at 490 nm. The Inhibition rate was calculated.
(§6) Inhibition rate=[(ODmodel−ODblank)−(ODdrugs−ODblank)]/(ODmodel−ODblank)×100%
(§7) The MTT experiment was repeated three times.

MCF-7 = test: MTT inhibition of tumor cells in vitro (Example 3); details: 48 hours
Protocol: as §1, §2, §3, §4, §5, §6, §7

BGC823 = test: MTT inhibition of tumor cells in vitro (Example 3); details: 40 μg/mL
Protocol: as §1, §2, §3, §4, §5, §6, §7

HT29 = test: MTT inhibition of tumor cells in vitro (Example 3); details: 40 μg/mL
Protocol: as §1, §2, §3, §4, §5, §6, §7

HepG2 [1] = test: Inhibitory activity and IC50 to HepG2 at different time of treatment (MTT, Example 4); details: HepG2, 40 μg/ml
Protocol: Human resources hepatoma cell line HepG2 was provided by Cancer Hospital, Chinese Academy of Medical Sciences. […] Cells were passaged every 2 or 3 days, and all the experiments were carried out on exponentially growing cells.
Cells were harvested in good growth status and cell suspension was prepared with 2×10^4 cells/mL, added 100 μL per well of 96-well plates, and cultured for 24 h in the incubator. 100 μL liquid medium with no cell was added per well as blank group.
3 plates were used as parallel test to culture cells at different period.
Before medication, supernatant of each well was removed and fresh 1640 medium was added, 180 μL per well. […] Wells of blank and model groups were added with 0.5% DMSO, 20 μL per well. After finished adding drugs, cells were incubated for 24 and 48 h respectively. At the end of incubation, 20 μL MTT was added per well […]. The supernatant was removed carefully and 150 μL DMSO was added per well. After shaken for 10 mins, the absorbance was read at 490 nm and the inhibition rate was calculated with the formula below.
as §6
IC50 was calculated with Bliss method.
as §7

HepG2 [2] = test: MTT inhibition of tumor cells in vitro (Example 3); details: 40 μg/mL

Row | Structure (SMILES) | Inhibition rate, A875 (A875; 40 μg/mL) [%] | Inhibition rate, MCF-7 (MCF-7; 40 μg/mL) [%] | Inhibition rate, BGC823 (BGC823; 48 hours) [%] | Inhibition rate, HT29 (HT29; 48 hours) [%] | Inhibition rate (HepG2 [1]; 24 h) [%] | Inhibition rate (HepG2 [1]; 48 h) [%] | Inhibition rate, HepG2 (HepG2 [2]; 48 hours) [%] | inhibition at 40 µg/mL (A875; Homo sapiens, A875, 40 μg/mL, read-out: Inhibition rate, A875) [%] | inhibition at 40 µg/mL (MCF-7; Homo sapiens, MCF7, 40 μg/mL, read-out: Inhibition rate, MCF-7) [%] | inhibition at 40 µg/mL (BGC823; Homo sapiens, BGC-823, 48 h, read-out: Inhibition rate, BGC823) [%] | inhibition at 40 µg/mL (HT29; Homo sapiens, HT-29, 48 h, read-out: Inhibition rate, HT29) [%] | inhibition at 40 µg/mL (HepG2 [2]; Homo sapiens, HepG2, 48 h, read-out: Inhibition rate, HepG2) [%]
1 | N.N.[Cl][Pt][Cl] [Cisplatin, reference compound] | 90.13 ± 1.98 | 97.53 ± 2.05 | 97.86 ± 4.12 | 99.04 ± 1.15 | 47.94 ± 6.328 | 99.45 ± 0.36 | 82.15 ± 4.05 |  |  |  |  | 
2 | COC(=O)C1CC(O[C@H]2CC[C@]3(C)[C@H]4C=CC5[C@@H]6CC(C)(C)CC[C@]6(C(=O)OC6OC(C)C(OC(=O)/C=C\c7ccc(C)cc7)C(OC(C)=O)C6OC6CC(C)C(O)C(O)C6O)[C@H](O)C[C@@]5(C)[C@]4(C)CC[C@H]3[C@]2(C)C=O)C(OC2OC(CO)C(O)C(O)C2O)C(OC2OCC(O)C(O)C2O)C1O (stereo partly drawn) [Compound (4), sinocrassuloside IV] |  |  |  |  |  |  |  | 70.5 ± 9.76 | 56.2 ± 1.96 | 92.4 ± 6.24 | 90.6 ± 5.6 | 65.7 ± 1.05
